Source: ChEMBL document CHEMBL1133821, “Synthesis and antiinflammatory, analgesic activity of 3,3'-(1,2-ethanediyl)-bis[2-aryl-4-thiazolidinone] chiral compounds. Part 10” (Bioorg Med Chem Lett, 2001)

Tests used:
[1] = Peroral dose causing 50% death of the mice population; assay type: ADME, organism-based; settings: mouse, in vivo, po
Rattus norvegicus [2] = test: Animals with Ulcers in Carrageenan-induced paw edema test at a dose of 100 mg/kg perorally in rats; assay type: functional; settings: route oral
Rattus norvegicus [3] = test: Percent Edema variation in Carrageenan-induced paw edema test at a dose of 100 mg/kg perorally in rats after 180 min (p<0.01); assay type: functional; settings: route oral
Rattus norvegicus [4] = test: Percent Edema variation in Carrageenan-induced paw edema test at a dose of 100 mg/kg perorally in rats after 120 min; assay type: functional; settings: route oral
Rattus norvegicus [5] = test: Percent Edema variation in Carrageenan-induced paw edema test at a dose of 100 mg/kg perorally in rats after 60 min; assay type: functional; settings: route oral
[6] = Minimum concentration which causes 50% of the Artemia salina larvae to lose mobility; assay type: ADME, organism-based; settings: in vivo
Rattus norvegicus [7] = test: Animals with Hyperemia in Carrageenan-induced paw edema test at a dose of 100 mg/kg perorally in rats; assay type: functional; settings: route oral
Rattus norvegicus [8] = test: Analgesic activity was determined using acetic acid writing test at a dose of 100 mg/kg perorally in rats. (p<0.01); assay type: functional; settings: route oral
Rattus norvegicus [9] = test: Number of writhings in Acetic acid Writhing test at a dose of 100 mg/kg perorally in rats; assay type: functional; settings: route oral
Rattus norvegicus [10] = test: Percent Edema variation in Carrageenan-induced paw edema test at a dose of 100 mg/kg perorally in rats after 120 min (p<0.05); assay type: functional; settings: route oral
Rattus norvegicus [11] = test: Reaction time in Hot plate test at a dose of 100 mg/kg perorally in rats after 60 min (p<0.01); assay type: functional; settings: route oral
Rattus norvegicus [12] = test: Reaction time in Hot plate test at a dose of 100 mg/kg perorally in rats after 180 min (p<0.05); assay type: functional; settings: route oral
Rattus norvegicus [13] = test: Reaction time in Hot plate test at a dose of 100 mg/kg perorally in rats after 120 min (p<0.01); assay type: functional; settings: route oral
Rattus norvegicus [14] = test: Percent Edema variation in Carrageenan-induced paw edema test at a dose of 100 mg/kg perorally in rats after 180 min (p<0.001); assay type: functional; settings: route oral
Rattus norvegicus [15] = test: Percent Edema variation in Carrageenan-induced paw edema test at a dose of 100 mg/kg perorally in rats after 180 min; assay type: functional; settings: route oral
Rattus norvegicus [16] = test: Reaction time in Hot plate test at a dose of 100 mg/kg perorally in rats after 60 min (p<0.05); assay type: functional; settings: route oral
Rattus norvegicus [17] = test: Reaction time in Hot plate test at a dose of 100 mg/kg perorally in rats after 120 min (p<0.05); assay type: functional; settings: route oral
Rattus norvegicus [18] = test: Analgesic activity was determined using acetic acid writing test at a dose of 100 mg/kg perorally in rats.(p<0.05); assay type: functional; settings: route oral
Rattus norvegicus [19] = test: Reaction time in Hot plate test at a dose of 100 mg/kg perorally in rats after 60 min; assay type: functional; settings: route oral
Rattus norvegicus [20] = test: Analgesic activity was determined using acetic acid writing test at a dose of 100 mg/kg perorally in rats.; assay type: functional; settings: route oral
Rattus norvegicus [21] = test: Reaction time in Hot plate test at a dose of 100 mg/kg perorally in rats after 180 min; assay type: functional; settings: route oral
Rattus norvegicus [22] = test: Reaction time in Hot plate test at a dose of 100 mg/kg perorally in rats after 120 min; assay type: functional; settings: route oral
Rattus norvegicus [23] = test: Percent Edema variation in Carrageenan-induced paw edema test at a dose of 100 mg/kg perorally in rats after 60 min (p<0.01); assay type: functional; settings: route oral
Rattus norvegicus [24] = test: Analgesic activity was determined using acetic acid writing test at a dose of 5 mg/kg perorally in rats. (p<0.01); assay type: functional; settings: route oral
Rattus norvegicus [25] = test: Reaction time in Hot plate test at a dose of 5 mg/kg perorally in rats after 60 min (p<0.01); assay type: functional; settings: route oral
Rattus norvegicus [26] = test: Animals with Ulcers in Carrageenan-induced paw edema test at a dose of 5 mg/kg perorally in rats; assay type: functional; settings: route oral
Rattus norvegicus [27] = test: Number of writhings in Acetic acid Writhing test at a dose of 5 mg/kg perorally in rats; assay type: functional; settings: route oral
Rattus norvegicus [28] = test: Percent Edema variation in Carrageenan-induced paw edema test at a dose of 5 mg/kg perorally in rats after 180 min (p<0.01); assay type: functional; settings: route oral
Rattus norvegicus [29] = test: Percent Edema variation in Carrageenan-induced paw edema test at a dose of 5 mg/kg perorally in rats after 120 min; assay type: functional; settings: route oral
Rattus norvegicus [30] = test: Reaction time in Hot plate test at a dose of 5 mg/kg perorally in rats after 180 min (p<0.01); assay type: functional; settings: route oral
Rattus norvegicus [31] = test: Reaction time in Hot plate test at a dose of 5 mg/kg perorally in rats after 120 min (p<0.01); assay type: functional; settings: route oral
Rattus norvegicus [32] = test: Percent Edema variation in Carrageenan-induced paw edema test at a dose of 5 mg/kg perorally in rats after 60 min; assay type: functional; settings: route oral
Rattus norvegicus [33] = test: Animals with Hyperemia in Carrageenan-induced paw edema test at a dose of 5 mg/kg perorally in rats; assay type: functional; settings: route oral

SMILES | LD50 [1] [mg/kg] | Animals (Rattus norvegicus [2]) [%] | Edema variation (Rattus norvegicus [4]) [%] | Edema variation (Rattus norvegicus [5]) [%] | LC50 [6] [µg/mL] | Animals (Rattus norvegicus [7]) [%] | No. of writhings (Rattus norvegicus [9]) | Edema variation (Rattus norvegicus [15]) [%] | other results
COc1ccc(OC)c([C@H]2SCC(=O)N2CCN2C(=O)CS[C@H]2c2cc(OC)ccc2OC)c1 | > 1000 | 0 | -13.5 | -12.48 | > 1000 | 40 | – | – | Edema variation (Rattus norvegicus [3]): -39.06%
COc1ccc(C2SCC(=O)N2CCN2C(=O)CSC2c2ccc(OC)c(OC)c2)cc1OC (stereo not drawn) | > 1000 | 0 | – | -2.13 | > 1000 | 20 | 9.6 | – | inhibition in vivo at 100 mg/kg (Rattus norvegicus [8]): 53%; Edema variation (Rattus norvegicus [10]): -30.13%; Reaction time (Rattus norvegicus [11]): 30.4 s; Reaction time (Rattus norvegicus [12]): 16.8 s; Reaction time (Rattus norvegicus [13]): 26.7 s; Edema variation (Rattus norvegicus [14]): -76.62%
COc1ccc(OC)c(C2SCC(=O)N2CCN2C(=O)CSC2c2cc(OC)ccc2OC)c1 (stereo not drawn) | > 1000 | 0 | -24.62 | 33.55 | > 1000 | 40 | – | -70.22 | –
O=C1CSC(c2ccc(Cl)c(Cl)c2)N1CCN1C(=O)CSC1c1ccc(Cl)c(Cl)c1 (stereo not drawn) | > 1000 | 0 | – | 14.04 | > 1000 | 40 | 15.2 | -27.48 | Edema variation (Rattus norvegicus [10]): -31.41%; Reaction time (Rattus norvegicus [16]): 20 s; Reaction time (Rattus norvegicus [17]): 18.4 s; Reaction time (Rattus norvegicus [12]): 19.8 s; inhibition in vivo at 100 mg/kg (Rattus norvegicus [18]): 24%
COc1ccc(C2SCC(=O)N2CCN2C(=O)CSC2c2ccc(OC)c(F)c2)cc1F (stereo not drawn) | > 1000 | 0 | -23.83 | 8.6 | > 1000 | 20 | 16.4 | – | Edema variation (Rattus norvegicus [3]): -38.94%; Reaction time (Rattus norvegicus [17]): 16.8 s; Reaction time (Rattus norvegicus [19]): 13.4 s; inhibition in vivo at 100 mg/kg (Rattus norvegicus [20]): 20%; Reaction time (Rattus norvegicus [21]): 13.5 s
COc1cccc(C2SCC(=O)N2CCN2C(=O)CSC2c2cccc(OC)c2)c1 (stereo not drawn) | > 1000 | 0 | -26.3 | – | > 1000 | 20 | 19.5 | -18.31 | Reaction time (Rattus norvegicus [22]): 13 s; Reaction time (Rattus norvegicus [19]): 13.4 s; Edema variation (Rattus norvegicus [23]): -34.4%; inhibition in vivo at 100 mg/kg (Rattus norvegicus [20]): 4%; Reaction time (Rattus norvegicus [21]): 12.9 s
COc1ccc2c(c1)c(CC(=O)O)c(C)n2C(=O)c1ccc(Cl)cc1 [INDOMETHACIN] | 15 | – | – | – | – | – | – | – | inhibition in vivo at 5 mg/kg (Rattus norvegicus [24]): 80%; Reaction time (Rattus norvegicus [25]): 26.1 s; Animals (Rattus norvegicus [26]): 80%; No. of writhings (Rattus norvegicus [27]): 4; Edema variation (Rattus norvegicus [28]): -50.86%; Edema variation (Rattus norvegicus [29]): -10.85%; Reaction time (Rattus norvegicus [30]): 28 s; Reaction time (Rattus norvegicus [31]): 27.1 s; Edema variation (Rattus norvegicus [32]): -15.4%; Animals (Rattus norvegicus [33]): 100%
